One experiment addresses GSK3β (H350L) (Homo sapiens (Human), UniProt P49841). Particulars: read-out: GSK3β Ki.
Experiment [1] has as its target CDK2/Cyclin E1 full length (Homo sapiens (Human), UniProt P24941). In words: CDK2/Cyclin E1 full length mobility shift assay. It counts as biochemical.

Structures are written as SMILES.

Sequence of GSK3β (H350L) (P49841 whole entry, stated change not applied): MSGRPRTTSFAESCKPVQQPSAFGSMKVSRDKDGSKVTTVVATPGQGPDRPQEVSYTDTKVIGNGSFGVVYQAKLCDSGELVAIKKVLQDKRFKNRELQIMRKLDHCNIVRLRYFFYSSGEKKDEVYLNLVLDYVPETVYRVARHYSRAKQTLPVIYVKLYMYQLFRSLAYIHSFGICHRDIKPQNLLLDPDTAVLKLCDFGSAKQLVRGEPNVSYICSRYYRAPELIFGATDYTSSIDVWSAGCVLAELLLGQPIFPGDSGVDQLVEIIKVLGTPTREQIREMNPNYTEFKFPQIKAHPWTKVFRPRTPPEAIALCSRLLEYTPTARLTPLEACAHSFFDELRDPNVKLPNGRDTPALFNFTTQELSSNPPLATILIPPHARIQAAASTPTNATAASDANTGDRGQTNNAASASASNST
Procedure for GSK3β (H350L): The assay was initiated with the addition of ATP, following 15 minutes pre-incubation of enzyme and inhibitor at room temperature in the reaction mixture. The reaction was stopped after 30 minutes at room temperature by the addition of 50 μL of 80 mM EDTA.

`CCNC(=O)O[C@@H]1CC[C@H](c2cc(NC(=O)Cc3ccc4c(cnn4C)c3)n[nH]2)C1` [Example 3, (1R,3S)-3-(3-{[(1-methyl-1H-indazol-5-yl)acetyl]amino}-1H-pyrazol-5-yl)cyclopentyl ethylcarbamate]: the Ki (in general, the equilibrium dissociation constant of an inhibitor or competing ligand from its target) on GSK3β (H350L) turned out to be 10 nM; in experiment [1] it was 0.34 nM.

Regarding `CC[C@H](C)NC(=O)O[C@@H]1CC[C@H](c2cc(NC(=O)c3cnnn3C)n[nH]2)C1` [Example 4, (1R,3S)-3-(3-{[(1-methyl-1H-1,2,3-triazol-5-yl)carbonyl]amino}-1H-pyrazol-5-yl)cyclopentyl (2S)-butan-2-ylcarbamate], the Ki was 110 nM on GSK3β (H350L) and 0.1 nM in experiment [1].

As to `Cc1cnc(CC(=O)Nc2cc([C@H]3CC[C@@H](OC(=O)NC4(C)CC4)C3)[nH]n2)o1` [Example 5, (1R,3S)-3-(3-{[(5-methyl-1,3-oxazol-2-yl)acetyl]amino}-1H-pyrazol-5-yl)cyclopentyl (1-methylcyclopropyl)carbamate], the Ki on GSK3β (H350L) worked out at 39.4 nM; in experiment [1], 0.4 nM.

In the case of `Cc1cnc(CC(=O)Nc2cc([C@H]3CC[C@@H](OC(=O)NC(C)(C)C)C3)[nH]n2)o1` [Example 11, (1R,3S)-3-(3-{[(5-methyl-1,3-oxazol-2-yl)acetyl]amino}-1H-pyrazol-5-yl)cyclopentyl tert-butylcarbamate], the Ki on GSK3β (H350L) came to 36.2 nM; in experiment [1], 0.32 nM.

On to `Cc1cc(CC(=O)Nc2cc([C@H]3CC[C@@H](OC(=O)N4CCC4(C)C)C3)[nH]n2)on1` [Example 12, (1R,3S)-3-(3-{[(3-methyl-1,2-oxazol-5-yl)acetyl]amino}-1H-pyrazol-5-yl)cyclopentyl 2,2-dimethylazetidine-1-carboxylate], for which the Ki at GSK3β (H350L) came out at 4.86 nM; in experiment [1], 0.13 nM.

On to `CC[C@H](C)NC(=O)O[C@@H]1CC[C@H](c2cc(NC(=O)c3cc(COC)nn3C)n[nH]2)C1` [Example 14, (1R,3S)-3-[3-({[3-(methoxymethyl)-1-methyl-1H-pyrazol-5-yl]carbonyl}amino)-1H-pyrazol-5-yl]cyclopentyl (2S)-butan-2-ylcarbamate], for which the results for the Ki (at GSK3β (H350L); in experiment [1]) were 294 nM and 0.27 nM, respectively.

Take `CC(C)(C)NC(=O)O[C@@H]1CC[C@H](c2cc(NC(=O)Cc3ccon3)n[nH]2)C1` [Example 17, (1R,3S)-3-{3-[(1,2-oxazol-3-ylacetyl)amino]-1H-pyrazol-5-yl}cyclopentyl tert-butylcarbamate]: the Ki on GSK3β (H350L) stood at 65.8 nM; in experiment [1] it was 0.33 nM.

As for `CCCNC(=O)O[C@H]1CC[C@@H](c2cc(NC(=O)Cc3cncs3)n[nH]2)C1` [Example 20], the figures for the Ki (at GSK3β (H350L); in experiment [1]) were 27.9 nM and 0.21 nM, respectively.

In the case of `CCCNC(=O)O[C@H]1CC[C@@H](c2cc(NC(=O)Cc3ccc(OC)nc3)n[nH]2)C1` [Example 21], the values for the Ki (on GSK3β (H350L); in experiment [1]) were 4.2 nM and 0.25 nM, respectively.

For `CCCNC(=O)O[C@H]1CC[C@@H](c2cc(NC(=O)Cc3cnc(C)s3)n[nH]2)C1` [Example 22], the Ki was greater than 191 nM on GSK3β (H350L) and 0.23 nM in experiment [1].

Consider `CCCNC(=O)O[C@H]1CC[C@@H](c2cc(NC(=O)Cc3ccc4[nH]c(C)nc4c3)n[nH]2)C1` [Example 23], for which the Ki at GSK3β (H350L) was 2.45 nM; in experiment [1], 0.11 nM.

In the case of `O=C(Cc1cc(F)cc(F)c1)Nc1cc([C@@H]2CC[C@H](OC(=O)N[C@H]3CC[C@@H](O)CC3)C2)[nH]n1` [Example 27], the Ki came to 3.57 nM on GSK3β (H350L) and 0.24 nM in experiment [1].

On to `O=C(Cc1cc(F)cc(F)c1)Nc1cc([C@@H]2CC[C@H](OC(=O)N[C@H]3CC[C@H](O)CC3)C2)[nH]n1` [Example 28], for which the Ki on GSK3β (H350L) was found to be 4.5 nM; in experiment [1], 0.18 nM.

As to `CC[C@@H](C)NC(=O)O[C@H]1CC[C@@H](c2cc(NC(=O)Cc3ccno3)n[nH]2)C1` [Example 29], the inhibitory constant (Ki) at GSK3β (H350L) came out at 19.7 nM; in experiment [1], 0.16 nM.

`CC[C@H](C)NC(=O)O[C@H]1CC[C@@H](c2cc(NC(=O)Cc3ccno3)n[nH]2)C1` [Example 30]: the Ki on GSK3β (H350L) amounted to 20.6 nM; in experiment [1], 0.16 nM.

With `CC[C@H](C)NC(=O)O[C@H]1CC[C@@H](c2cc(NC(=O)c3cnnn3C)n[nH]2)C1` [Example 31], the Ki on GSK3β (H350L) is 45.1 nM; in experiment [1], 0.16 nM.

Turning to `CC[C@H](C)NC(=O)O[C@@H]1CC[C@H](c2cc(NC(=O)Cc3cc(C)no3)n[nH]2)C1` [Example 32], the results for the Ki (at GSK3β (H350L); in experiment [1]) were 35.7 nM and 0.36 nM, respectively.

With `CC[C@H](C)NC(=O)O[C@@H]1CC[C@H](c2cc(NC(=O)Cc3cnc(C)s3)n[nH]2)C1` [Example 33], the inhibitory constant (Ki) at GSK3β (H350L) was 26.4 nM; in experiment [1], 0.17 nM.

Regarding `CC[C@H](C)NC(=O)O[C@@H]1CC[C@H](c2cc(NC(=O)Cc3cnc(C)cn3)n[nH]2)C1` [Example 34], the Ki at GSK3β (H350L) was 31.2 nM; in experiment [1], 0.33 nM.

For `CC[C@H](C)NC(=O)O[C@@H]1CC[C@H](c2cc(NC(=O)Cc3ccc(C)nc3)n[nH]2)C1` [Example 35], the Ki at GSK3β (H350L) stood at 12.5 nM; in experiment [1], 0.22 nM.

Turning to `CC[C@H](C)NC(=O)O[C@@H]1CC[C@H](c2cc(NC(=O)Cc3cncs3)n[nH]2)C1` [Example 36], the Ki at GSK3β (H350L) is 21.3 nM; in experiment [1], 0.17 nM.

On to `CC[C@H](C)NC(=O)O[C@@H]1CC[C@H](c2cc(NC(=O)Cc3ccnc(OC)c3)n[nH]2)C1` [Example 37], for which the inhibition constant (Ki) on GSK3β (H350L) was 23.4 nM; in experiment [1], 0.19 nM.

`CC[C@H](C)NC(=O)O[C@@H]1CC[C@H](c2cc(NC(=O)Cc3ccccc3)n[nH]2)C1` [Example 38]: the Ki at GSK3β (H350L) stood at 69.7 nM; in experiment [1], 0.18 nM.

Regarding `CC[C@H](C)NC(=O)O[C@@H]1CC[C@H](c2cc(NC(=O)Cc3cnc4ncnn4c3)n[nH]2)C1` [Example 39], the figures for the Ki (on GSK3β (H350L); in experiment [1]) were 23.9 nM and 0.14 nM, respectively.

Consider `CC[C@H](C)NC(=O)O[C@@H]1CC[C@H](c2cc(NC(=O)Cc3ccccc3S(=O)(=O)CC)n[nH]2)C1` [Example 40], for which the inhibitory constant (Ki) is 64.5 nM on GSK3β (H350L) and 0.24 nM in experiment [1].

For the compound `CC[C@H](C)NC(=O)O[C@@H]1CC[C@H](c2cc(NC(=O)c3cc(OC)nn3C)n[nH]2)C1` [Example 41], the Ki at GSK3β (H350L) is 343 nM; in experiment [1] it was 0.2 nM.

For `CC[C@H](C)NC(=O)O[C@@H]1CC[C@H](c2cc(NC(=O)c3ccnn3C)n[nH]2)C1` [Example 42], the Ki was found to be 34.4 nM at GSK3β (H350L) and 0.05 nM in experiment [1].

As for `CC[C@H](C)NC(=O)O[C@@H]1CC[C@H](c2cc(NC(=O)c3ccnc4ncsc34)n[nH]2)C1` [Example 43], the results for the Ki (on GSK3β (H350L); in experiment [1]) were 45.4 nM and 0.04 nM, respectively.

`CC[C@H](C)NC(=O)O[C@@H]1CC[C@H](c2cc(NC(=O)Cc3ccc(OC)cc3S(C)(=O)=O)n[nH]2)C1` [Example 44]: the inhibitory constant (Ki) at GSK3β (H350L) stood at 47.8 nM; in experiment [1], 0.21 nM.

As to `CC[C@H](C)NC(=O)O[C@@H]1CC[C@H](c2cc(NC(=O)Cc3ccc(C)cc3S(C)(=O)=O)n[nH]2)C1` [Example 45], the Ki on GSK3β (H350L) was found to be 61.4 nM; in experiment [1], 0.11 nM.

Take `CC[C@H](C)NC(=O)O[C@@H]1CC[C@H](c2cc(NC(=O)Cc3ccc4ncc(C)n4n3)n[nH]2)C1` [Example 46]: the Ki amounted to 20.6 nM on GSK3β (H350L) and 0.18 nM in experiment [1].

In the case of `CC[C@H](C)NC(=O)O[C@@H]1CC[C@H](c2cc(NC(=O)Cc3ccc4nc(C)cn4n3)n[nH]2)C1` [Example 47], the Ki on GSK3β (H350L) came to 10.2 nM; in experiment [1] it was 0.11 nM.

For the origin of these results see patent publication US11014911B2, “CDK2 inhibitors” (Pfizer Inc., priority 2019, dated 2021).
